In US20110306597A1, “Nicotinamide Derivatives” (priority 2008, published 2011):
pIC50: −log10 of the molar value.

Biological target: human recombinant H-PGDS (Homo sapiens, UniProt O60760)
Test: Fluorescence Intensity h-PGDS TBA Enzyme Assay
Assay type: biochemical
Conditions: 1:175,000 human recombinant H-PGDS, highest inhibitor concentration typically 1 μM
Method: Fluorescence Intensity h-PGDSTBA Enzyme Assay
Prostaglandin D Synthase (PGDS) converts the substrate prostaglandin H2 (PGH2) to prostaglandin D2. The depletion of PGH2 was measured via an Fe(II) reduction of the remaining PGH2 to malondialdehyde (MDA) and 12-HHT. The enzyme assay is based on the quantitative formation of a fluorescent complex from the non-fluorescent compounds MDA and 2-thiobarbituric acid (TBA), substantially as described in U.S. patent application publication US-2004/152148 by Lombardt.
The enzyme assay (31 μls) contained 100 mM Tris base pH 8.0, 100 μM MgCl2, 0.1 mg/ml IgG Rabbit serum, 5.0 μM PGH2 (Cayman; ethanol solution, #17020), 2.5 mM L-Glutathione (Sigma; reduced form #G4251), 1:175,000 human recombinant H-PGDS (from 1 mg/ml), 0.5% DMSO and inhibitor (varying concentration). Three μls of diluted inhibitor (dissolved in DMSO) was plated into a 384-well assay plate followed by a 25 μl addition of an enzyme solution containing h-PGDS, Tris, MgCl2, IgG and L-Glutathione. After preincubation of inhibitor and enzyme solution for 10 minutes at room temperature, the reaction was initiated with a 3 μl addition of substrate solution in 10 mM HCl. The reaction was terminated after 42 second by the addition (3 μl) of stop buffer containing FeCl2 and citric acid. After addition of 45.5 μls of TBA plates were heated for one hour in a 70 C oven. Plates were cooled at room temperature overnight and read on a plate reader the next day with excitation @ 530 nm and emission @ 565 nm.
IC50's of inhibitors were calculated with a 4-parameter fit using 11 inhibitor concentrations in duplicate with 3-fold serial dilutions. Controls on each plate included no inhibitor (zero % effect) and an inhibitor 10-fold in excess of its' IC50 (100% effect). The highest inhibitor concentration tested was typically 1 μM.

Sequence of human recombinant H-PGDS (O60760 whole entry): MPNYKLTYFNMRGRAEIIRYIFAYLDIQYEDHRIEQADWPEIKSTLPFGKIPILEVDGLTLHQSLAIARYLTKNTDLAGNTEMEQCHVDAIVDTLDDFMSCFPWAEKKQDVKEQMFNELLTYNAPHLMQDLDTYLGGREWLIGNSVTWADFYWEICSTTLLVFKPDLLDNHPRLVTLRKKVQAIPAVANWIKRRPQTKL

Row | Compound | pIC50
1 | CN(C)C(=O)N1[C@@H]2CC[C@H]1C[C@H](NC(=O)c1ccc(-c3cccc(F)c3)nc1)C2 [Example 595, (3-exo)-3-({[6-(3-Fluorophenyl)-pyridin-3-yl]carbonyl}amino)-N,N-dimethyl-8-azabicyclo[3.2.1]octane-8-carboxamide] | 8.52
2 | COc1cccc(-c2ccc(C(=O)NC(C)C)cn2)c1 [Example 297, N-Isopropyl-6-(3-methoxyphenyl)nicotinamide] | 6.45
3 | CN(C)C(=O)CNC(=O)c1ccc(-c2cccc(F)c2)nc1 [Example 161, N-[2-(dimethylamino)-2-oxoethyl]-6-(3-fluorophenyl)nicotinamide] | 7.06
4 | COc1cccc(-c2ccc(C(=O)NCc3ccccc3)cn2)c1 [Example 341, N-Benzyl-6-(3-methoxyphenyl)nicotinamide] | 6.88
5 | N#CC(NC(=O)c1ccc(-c2ccccc2)nc1)C(=O)NCCN1CCOCC1 (centres unmarked) [Example 376, N-{1-Cyano-2-[(2-morpholin-4-ylethyl)amino]-2-oxoethyl}-6-phenylnicotinamide] | 7.26
6 | CCOC(=O)CCCNC(=O)c1ccc(-c2cccc(OC)c2)nc1 [Example 301, Ethyl 4-({[6-(3-methoxyphenyl)pyridin-3-yl]carbonyl}amino)butanoate] | 7.30
7 | Cc1nnc(C(C)NC(=O)c2ccc(-c3cccc(F)c3)nc2)[nH]1 (centres unmarked) [Example 138, 6-(3-Fluorophenyl)-N-[1-(5-methyl-4H-1,2,4-triazol-3-yl)ethyl]nicotinamide] | 6.54
8 | COc1cccc(-c2ccc(C(=O)NCc3ccco3)cn2)c1 [Example 288, N-(2-Furylmethyl)-6-(3-methoxyphenyl)nicotinamide] | 6.48
9 | O=C(NCCc1nc(CN2CCOCC2)no1)c1ccc(-c2cccc(F)c2)nc1 [Example 35, 6-(3-Fluorophenyl)-N-{2-[3-(morpholin-4-ylmethyl)-1,2,4-oxadiazol-5-yl]ethyl}nicotinamide] | 7.29
10 | CN1CCCCC1CNC(=O)c1ccc(-c2cccc(F)c2)nc1 (centres unmarked) [Example 97, 6-(3-Fluorophenyl)-N-[(1-methylpiperidin-2-yl)methyl]nicotinamide] | 6.82
11 | Cc1cccc(-c2ccc(C(=O)NC(=O)[C@@H](N)C(C)C)cn2)c1 [Example 243, 6-(3-Methylphenyl)-N-L-valylnicotinamide] | 6.91
12 | O=C(NCc1ccco1)c1ccc(-c2ccc(F)cc2)nc1 [Example 473, 6-(4-Fluorophenyl)-N-(2-furylmethyl)nicotinamide] | 6.42
13 | Cc1cccc(-c2ccc(C(=O)NCC(C)O)cn2)c1 (centres unmarked) [Example 234, N-(2-Hydroxypropyl)-6-(3-methylphenyl)nicotinamide] | 7.18
14 | O=C(NCCN1CCCC1)c1ccc(-c2ccccc2)nc1 [Example 358, 6-Phenyl-N-(2-pyrrolidin-1-ylethyl)nicotinamide] | 6.70
15 | O=C(NCCN1CCCC1)c1ccc(-c2cccc(F)c2)nc1 [Example 422, 6-(3-Fluorophenyl)-N-(2-pyrrolidin-1-ylethyl)nicotinamide] | 6.80
16 | Cc1cccc(-c2ccc(C(=O)NCCc3cccs3)cn2)c1 [Example 321, 6-(3-Methylphenyl)-N-[2-(2-thienyl)ethyl]nicotinamide] | 7.07
17 | COCCCn1cnnc1CNC(=O)c1ccc(-c2cccc(F)c2)nc1 [Example 17, 6-(3-Fluorophenyl)-N-{[4-(3-methoxypropyl)-4H-1,2,4-triazol-3-yl]methyl}nicotinamide] | 6.95
18 | CCc1cn2nc(N3C[C@H](NC(=O)c4ccc(-c5cccc(F)c5)nc4)[C@@H](O)C3)ccc2n1 [Example 564, N-[(3S,4S)-1-(2-ethylimidazo[1,2-b]pyridazin-6-yl)-4-hydroxypyrrolidin-3-yl]-6-(3-fluorophenyl)nicotinamide] | 7.21
19 | CCOC(=O)C1(NC(=O)c2ccc(-c3cccc(C)c3)nc2)CCOCC1 [Example 220, Ethyl 4-({[6-(3-methylphenyl)pyridin-3-yl]carbonyl}amino)tetrahydro-2H-pyran-4-carboxylate] | 7.03
20 | COc1cccc(-c2ccc(C(=O)NCC(=O)N(C)C)cn2)c1 [Example 343, N-[2-(Dimethylamino)-2-oxoethyl]-6-(3-methoxyphenyl)nicotinamide] | 6.01
21 | CCOC(=O)C(C)(C)NC(=O)c1ccc(-c2cccc(F)c2)nc1 [Example 145, Ethyl N-{[6-(3-fluorophenyl)pyridin-3-yl]carbonyl}-2-methylalaninate] | 6.65
22 | CC(NC(=O)c1ccc(-c2ccc(F)cc2)nc1)c1ccncn1 (centres unmarked) [Example 502, 6-(4-Fluorophenyl)-N-(1-pyrimidin-4-ylethyl) nicotinamide] | ≤ 6.00
23 | COc1cccc(-c2ccc(C(=O)NC3CCOC3=O)cn2)c1 (centres unmarked) [Example 293, 6-(3-Methoxyphenyl)-N-(2-oxotetrahydrofuran-3-yl)nicotinamide] | 6.29

Continued by rising pIC50, values first:

Row | pIC50 | Compound
24 | 7.41 | N-(3-Fluorobenzyl)-6-(3- methylphenyl)nicotinamide [Example 238]
25 | 7.47 | C[C@@H](CNC(=O)c1ccc(-c2cccc(F)c2)nc1)NC(=O)OCc1ccccc1 [Example 433, Benzyl [(1S)-2-({[6-(3-fluorophenyl)pyridin-3-yl]carbonyl}amino)-1-methylethyl]carbamate]
26 | 7.48 | O=C(NCCN1CCN(Cc2ccccc2)CC1)c1ccc(-c2cccc(F)c2)nc1 [Example 176, N-[2-(4-Benzylpiperazin-1-yl)ethyl]-6-(3-fluorophenyl)nicotinamide]
27 | 7.59 | O=C(NCCN1CCNC1=O)c1ccc(-c2ccccc2)nc1 [Example 375, N-[2-(2-Oxoimidazolidin-1-yl)ethyl]-6-phenylnicotinamide]
28 | 7.62 | O=C(NCCN1CCOCC1)c1ccc(-c2ccccc2)nc1 [Example 389, N-(2-Morpholin-4-ylethyl)-6-phenylnicotinamide]
29 | 7.71 | Cc1cccc(-c2ccc(C(=O)NCc3ccccc3)cn2)c1 [Example 310, N-Benzyl-6-(3-methylphenyl)nicotinamide]
30 | 7.72 | O=C(NCC1CC2(CCN(Cc3ccccn3)CC2)CO1)c1ccc(-c2cccc(F)c2)nc1 (centres unmarked) [Example 53, 6-(3-Fluorophenyl)-N-{[8-(pyridin-2-ylmethyl)-2-oxa-8-azaspiro[4.5]dec-3-yl]methyl}nicotinamide]
31 | 7.73 | CNS(=O)(=O)c1ccc(CNC(=O)c2ccc(-c3ccccc3)nc2)cc1 [Example 397, N-{4-[(Methylamino)sulfonyl]benzyl}-6-phenylnicotinamide]
32 | 7.81 | O=C(NCC1CCCN(c2nc(C(F)F)cc(=O)[nH]2)C1)c1ccc(-c2cccc(F)c2)nc1 (centres unmarked) [Example 107, N-({1-[4-(Difluoromethyl)-6-oxo-1,6-dihydropyrimidin-2-yl]piperidin-3-yl}methyl)-6-(3-fluorophenyl)nicotinamide]
33 | 7.88 | COC(=O)CCCNC(=O)c1ccc(-c2cccc(F)c2)nc1 [Example 44, Methyl 4-({[6-(3-fluorophenyl)pyridin-3-yl]carbonyl}amino)butanoate]
34 | 7.89 | O=C(NCc1cn2ccccc2n1)c1ccc(-c2cccc(F)c2)nc1 [Example 100, 6-(3-Fluorophenyl)-N-(imidazo[1,2-a]pyridin-2-ylmethyl)nicotinamide]
35 | 7.92 | CCOC(=O)CC(NC(=O)c1ccc(-c2ccccc2)nc1)c1ccc(OC)cc1 (centres unmarked) [Example 362, Ethyl 3-(4-methoxyphenyl)-3-{[(6-phenylpyridin-3-yl)carbonyl]amino}propanoate]
36 | 7.99 | O=C(NCC(O)c1ccccc1F)c1ccc(-c2cccc(F)c2)nc1 (centres unmarked) [Example 79, 6-(3-Fluorophenyl)-N-[2-(2-fluorophenyl)-2-hydroxyethyl]nicotinamide]
37 | 8.31 | O=C(NCCCn1nnc2ccccc21)c1ccc(-c2cccc(F)c2)nc1 [Example 5, N-[3-(1H-Benzotriazol-1-yl)propyl]-6-(3-fluorophenyl)nicotinamide]
38 | 8.40 | O=C(Nc1cccnc1)c1ccc(-c2cccc(F)c2)nc1 [Example 419, 6-(3-Fluorophenyl)-N-pyridin-3-ylnicotinamide]
39 | 8.52 | Cc1ccccc1CNC(=O)c1ccc(-c2cccc(F)c2)nc1 [Example 153, 6-(3-Fluorophenyl)-N-(2-methylbenzyl)nicotinamide]
40 | 8.98 | O=C(NCC1C(=O)Nc2ccc(F)cc21)c1ccc(-c2cccc(F)c2)nc1 (centres unmarked) [Example 534, N-[(5-Fluoro-2-oxo-2,3-dihydro-1H-indol-3-yl)methyl]-6-(3-fluorophenyl)nicotinamide]
41 | 9.07 | CN1CCc2nc(N3CCC(NC(=O)c4ccc(-c5cccc(F)c5)nc4)C3)ncc2C1 (centres unmarked) [Example 90, 6-(3-Fluorophenyl)-N-[1-(6-methyl-5,6,7,8-tetrahydropyrido[4,3-d]pyrimidin-2-yl)pyrrolidin-3-yl]nicotinamide]
